Entries after “also recorded” stand apart in the source; their conditions may differ.

A short description of data set [1]: Belt curing performance (thumb-twist depth cure) in UViCure S105E resin. The conditions noted are these: 24 μm film, under air, PI 2 wt %. The protocol: (§1) The photoinitiators were dissolved either in neat UViCure S105E resin or a hybrid acrylate/epoxy resin (prepared by mixing 60 wt parts UViCure S105E, 15 wt parts UViCure S130 and 25 wt parts SR492; all product are available from Sartomer). Formulations were prepared by combining all materials in the given proportions and then stirring at 30-40° C. until the samples were fully homogeneous; the formulations were then allowed to cool to room temperature. For all experiments, the formulations were cured on Leneta Form 3N-31 gloss finish paper at 6 μm and 24 μm film thickness using a belt-cure instrument; the films were prepared using a K-bar. All films were then cured under an LED lamp at a given belt speed. ‘Depth cure’ for each formulation was assessed using the ‘thumb-twist’ test (where no visible mark is made when a thumb is pressed down firmly onto the coating with a twisting motion), and from the belt speed; the calculated cure speed (in m/min) is given.

Data set [2] in a line: Belt curing performance (thumb-twist depth cure) in hybrid acrylate/epoxy resin. The conditions noted are these: 24 μm film, under air, PI 2 wt %. The protocol:
as §1

Data set [3] is described as follows: Solubility in propylene carbonate at ambient temperature. In kind it is physicochemical. Conditions: 20-25° C. The protocol:
Solubility of selected sulfonium salts in propylene carbonate at ambient temperature (20-25° C.) was determined.

Data set [4] in a line: Transmittance at 0.01% w/v in propylene carbonate. In kind it is physicochemical. The protocol:
The samples were prepared at 0.01% w/v in propylene carbonate.

Data set [5] can be described thus: 3D printability in hybrid system on 405 nm DLP printers. The conditions noted are these: hybrid formulations of Table 23.
A short description of data set [6]: UV Vis spectra measurement. Conditions: 10 ppm in acetonitrile. In kind it is physicochemical. An excerpt: UV-Vis spectrum of each sample was taken with a Shimadzu UV1800 spectrophotometer using a 1.0 cm path of cuvette quartz cell in accordance with ASTM E169-04, and scanning the spectrum over the wavelength range of 450 to 200 nm.
The nature of data set [7]: FTIR-ATR cure test of cationic formulations (epoxide, oxetane conversion, 1100 cm^-1 peak growth). Conditions: 405 nm, cationic systems. The protocol: Matrixes: In a 1000 mL of metal can, formulation matrix was charged according to the percentage in Table 12. The 1000-1005 g mixture of each matrix sample was prepared and mixed by mechanical mixer for about 1 hour around 60° C. until the solution became clear. Formulations: In a white max 50 jar from FlackTek Inc., photoinitiator and propylene carbonate were loaded at first, mixed by hand with stainless steel spatula, placed in 60° C. oven for about 1 h, mixed again until it became clear. Then, formulation matrix was charged according to the percentage in one of Table 13 to 21. The […]-52.60 g mixture of each sample was prepared and mixed for 3 minutes at 3000 RPM in Speed Mixer from FleackTec Inc. Then, all jars were placed in 60° C. oven for about 2 h, taken out and immediately mixed for another 2 minutes until the solution became clear.
A Fourier Transform Infrared (FTIR) with an Attenuated Total Reflection (ATR) setup was used. All polymerization rate measurements were performed using Nicolet iS50 FT-IR Spectrometer from Thermo Scientific, equipped with a standard DLaTGS detector. A lamp holder for the ART platform of FTIR unit can be customized and printed from Arkema N3xtDimention® engineered resin N3D-TOUGH784 in order to ensure precisely fit of a 365 nm lamp Accucure ULM-2-365 or a 405 nm lamp Accucure ULM-2-405 from Digital Light Labs. On the bottom of this lamp holder, a dry air channel is built in to allow air uniformly blowing over sample surface, the gas flow rate can be controlled over a rotameter. The LED light was manually triggered by Ultraviolet illumination & Measurement System. LED light exposure can be programed by AccuCure software. For measurement, 25 μL of liquid sample was placed in the center of an ATR crystal. 3 mil of thin film was prepared by a customized coating applicator (3 mil WFM, G1046 from BYK). The LED lamp with holder was place on the top of ART platform. Then FTIR scan was initiated to collect liquid IR spectrum at first. Each IR spectrum of a specific exposure time at 10 mW/cm^2 of LED light were collected. Measurements of acrylate conversion were taken at the peak height under the reference peak around 1727 cm^−1; the acrylate peak of SR833S at approximately 1407 cm^−1, the epoxide peak of UviCure S105 at approximately 790 cm^−1, and the oxetane peak of UViCure S130 at approximately 970 cm^−1 were also measured. Since the ring opening of both epoxide and oxetane generated C—O—C bond, the growth of C—O—C IR peak height at ~1100 cm^−1 was monitored as well. The resulting of peak 1100 cm^−1 growth rate could be calculated to assess total cationic cure speed. Peak heights were determined using the same baseline where a baseline is chosen to be the two lowest points between 600 cm^−1 and 1800 cm^−1. The peak height under the peak and above the baseline was then determined. The integration limits for liquid and the cured sample are not identical but are similar, especially for the reference peak.
The ratios of the acrylate peak height, epoxide peak height, ring opening peak height from both epoxide and oxetane to the reference peak height were determined for both the liquid and the cured samples. Degree of cure or conversion or peak growth rate, expressed as percentage reacted acrylate or epoxide or ring opening of both epoxide and oxetane, was calculated from the equation below: […]
Where Rliq is the peak height ratio of the liquid sample and Rc is the peak height ratio of the LED cured sample. The resulting acrylate and epoxide conversions or C—O—C growth rates were collected and listed in Tables 13 to 21, plotted in FIG. 1 to 8 and FIG. 10.

[8] abbreviates: LED 365 nm, 100% intensity (=70.1 mJ/cm^2), belt speed 40 m/min.

Consider `CC(C)c1ccc2c(c1)c(=O)c1ccccc1[s+]2-c1ccc(-c2ccccc2)cc1` (centres unmarked) [Omnicat 550, 10-[1,1′-Biphenyl]-4-yl-2-(1-methylethyl)-9-oxo-9H-thioxanthenium hexafluorophosphate, reference compound], for which the “Cure speed in UViCure S105E resin” value in data set [1] (setting [8]) was 5.0 m/min; in data set [1] (LED 395 nm, 40 m/min, 100% intensity (=164.5 mJ/cm^2)), 8.0 m/min. Besides, the “Cure speed in hybrid acrylate/epoxy resin” value in data set [2] (setting [8]) is given as 5.7 m/min; in data set [2] (LED 395 nm, 80 m/min, 50% intensity (=36.9 mJ/cm^2)), 10.5 m/min. Further, the “Solubility in propylene carbonate” value in data set [3] is 25 wt %. Also, in data set [4], the “% Transmittance at 355 nm” value is reported as 86.8%. In data set [4], the “% Transmittance at 420 nm” value is on record as 99.1%. The “printability on 405 nm DLP printers” value in data set [5] was “not printable even with over exposure time”.

On to `CC(C)(C)c1ccc([I+]c2ccc(C(C)(C)C)cc2)cc1` [Speedcure 938, Bis (4-tert-butylphenyl) iodonium hexafluorophosphate, reference compound], for which, in data set [6], the “UV absorption over 310 nm wavelength” value is given as “did not have any absorption at all”.

With `COC(OC)(C(=O)c1ccccc1)c1ccccc1` [Speedcure BKL, 2,2-dimethoxy-1,2-diphenylethan-1-one, reference compound], in data set [7], the “effect of radical photoinitiator on cationic photopolymerization” value is “Neither radical photoinitiator BKL nor TPO-L could promote cationic photopolymerization”.

Take `CCOP(=O)(C(=O)c1c(C)cc(C)cc1C)c1ccccc1` (centres unmarked) [Speedcure TPO-L, Ethyl(2,4,6-trimethylbenzoyl)phenyl phosphinate, reference compound]: the “effect of radical photoinitiator on cationic photopolymerization” value in data set [7] is “Neither radical photoinitiator BKL nor TPO-L could promote cationic photopolymerization; also recorded: slowed down the most”.

The values are drawn from patent US20260217983A1, “SULFONIUM SALT PHOTOINITIATORS AND METHODS OF LED CURING A COMPOSITION WITH SAID SULFONIUM SALT PHOTOINITIATORS” (ARKEMA FRANCE, priority 2022, published 2026).
